The nature of this series: Solubility of the compound in solvents. As to conditions: at 5° C. Type of series: physicochemical.

Consider `[O-][S+](CC(F)(F)F)c1cc(OCCCCCSC(F)(F)F)c(F)cc1Cl` (stereo not shown) [B-a, 5-trifluoromethylthiopentyl-[4-chloro-2-fluoro-5-(2,2,2-trifluoroethylsulfinyl)phenyl]ether], for which the “solubility in a mixed solution of 70 wt. % t-butanol/water” value was “about 2 wt. %”.

The values above are taken from patent US12552744B2, “Method for producing monosulfoxide derivative” (KUMIAI CHEMICAL INDUSTRY CO., LTD., priority 2020, dated 2026).
